# In PubChem BioAssay (NCI):
#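 Growth conditions: 96-well plates. Treatment: test compound, 48 hours, 5 concentrations. Analysis: linear interpolation between bracketing concentrations; unreached endpoints set to highest concentration. Definition used: TGI = concentration required for complete inhibition of growth.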
# Columns and labels:
# Test in all cases: NCI-60 cell line screen, 48 h
# KM12 colon = test system: KM12 colon
# NCI-H460 lung = test system: NCI-H460 lung
# U251 CNS = test system: U251 CNS
# SF-539 CNS = test system: SF-539 CNS
# NCI-H522 lung = test system: NCI-H522 lung
# NCI-H23 lung = test system: NCI-H23 lung
# UACC-62 melanoma = test system: UACC-62 melanoma
# OVCAR-4 ovarian = test system: OVCAR-4 ovarian
# HCC-2998 colon = test system: HCC-2998 colon
# CCRF-CEM leukemia = test system: CCRF-CEM leukemia
# K-562 leukemia = test system: K-562 leukemia
# LOX IMVI melanoma = test system: LOX IMVI melanoma
# UO-31 renal = test system: UO-31 renal
# MALME-3M melanoma = test system: MALME-3M melanoma
# HT29 colon = test system: HT29 colon
# SNB-75 CNS = test system: SNB-75 CNS
# DU-145 prostate = test system: DU-145 prostate
# MCF7 breast = test system: MCF7 breast
# UACC-257 melanoma = test system: UACC-257 melanoma
# CAKI-1 renal = test system: CAKI-1 renal
# SW-620 colon = test system: SW-620 colon
# OVCAR-3 ovarian = test system: OVCAR-3 ovarian
# PC-3 prostate = test system: PC-3 prostate
# HCT-15 colon = test system: HCT-15 colon
# T-47D breast = test system: T-47D breast
# EKVX NSCLC = test system: EKVX NSCLC
# TK-10 renal = test system: TK-10 renal
# BT-549 breast = test system: BT-549 breast
# A498 renal = test system: A498 renal
# SK-MEL-28 melanoma = test system: SK-MEL-28 melanoma
# COLO 205 colon = test system: COLO 205 colon
# OVCAR-5 ovarian = test system: OVCAR-5 ovarian
# M14 melanoma = test system: M14 melanoma
# SF-295 CNS = test system: SF-295 CNS
# HS 578T breast = test system: HS 578T breast
# HOP-92 NSCLC = test system: HOP-92 NSCLC
# MDA-N = test system: MDA-N
# RPMI-8226 leukemia = test system: RPMI-8226 leukemia
# SNB-19 CNS = test system: SNB-19 CNS
# HL-60(TB) leukemia = test system: HL-60(TB) leukemia
# OVCAR-8 ovarian = test system: OVCAR-8 ovarian
# A549 NSCLC = test system: A549 NSCLC
# MOLT-4 leukemia = test system: MOLT-4 leukemia
# SK-MEL-5 melanoma = test system: SK-MEL-5 melanoma
# NCI/ADR-RES ovarian = test system: NCI/ADR-RES ovarian
# MDA-MB-231 breast = test system: MDA-MB-231 breast
# SN12C renal = test system: SN12C renal
# IGROV1 ovarian = test system: IGROV1 ovarian
# HCT-116 colon = test system: HCT-116 colon
# SK-MEL-2 melanoma = test system: SK-MEL-2 melanoma
# SF-268 CNS = test system: SF-268 CNS
# RXF 393 renal = test system: RXF 393 renal
# SK-OV-3 ovarian = test system: SK-OV-3 ovarian
# MDA-MB-435 = test system: MDA-MB-435
# ACHN renal = test system: ACHN renal
# HOP-62 NSCLC = test system: HOP-62 NSCLC
# 786-0 renal = test system: 786-0 renal
# SR leukemia = test system: SR leukemia
# NCI-H226 lung = test system: NCI-H226 lung
structure (smiles),measurement,setting,value
Cc1ccc(P(c2ccc(C)cc2)c2ccc(C)cc2)cc1,TGI,KM12 colon,60.9 µM
same,TGI,NCI-H460 lung,36.5 µM
same,TGI,U251 CNS,43 µM
same,TGI,SF-539 CNS,37.7 µM
same,TGI,NCI-H522 lung,28.2 µM
same,TGI,NCI-H23 lung,> 100 µM
same,TGI,UACC-62 melanoma,52.3 µM
same,TGI,OVCAR-4 ovarian,80.3 µM
same,TGI,HCC-2998 colon,36 µM
same,TGI,CCRF-CEM leukemia,46.5 µM
same,TGI,K-562 leukemia,> 100 µM
same,TGI,LOX IMVI melanoma,30.4 µM
same,TGI,UO-31 renal,4.54 µM
same,TGI,MALME-3M melanoma,42.4 µM
same,TGI,HT29 colon,> 100 µM
same,TGI,SNB-75 CNS,49.5 µM
same,TGI,DU-145 prostate,40.1 µM
same,TGI,MCF7 breast,> 100 µM
same,TGI,UACC-257 melanoma,59.3 µM
same,TGI,CAKI-1 renal,98.5 µM
same,TGI,SW-620 colon,> 100 µM
same,TGI,OVCAR-3 ovarian,29.5 µM
same,TGI,PC-3 prostate,> 100 µM
same,TGI,HCT-15 colon,> 100 µM
same,TGI,T-47D breast,> 100 µM
same,TGI,EKVX NSCLC,> 100 µM
same,TGI,TK-10 renal,> 100 µM
same,TGI,BT-549 breast,> 100 µM
same,TGI,A498 renal,79.3 µM
same,TGI,SK-MEL-28 melanoma,56 µM
same,TGI,COLO 205 colon,44.6 µM
same,TGI,OVCAR-5 ovarian,61.1 µM
same,TGI,M14 melanoma,50.3 µM
same,TGI,SF-295 CNS,> 100 µM
same,TGI,HS 578T breast,57 µM
same,TGI,HOP-92 NSCLC,20.8 µM
same,TGI,MDA-N,55.8 µM
same,TGI,RPMI-8226 leukemia,34.6 µM
same,TGI,SNB-19 CNS,> 100 µM
same,TGI,HL-60(TB) leukemia,> 100 µM
same,TGI,OVCAR-8 ovarian,59.6 µM
same,TGI,A549 NSCLC,> 100 µM
same,TGI,MOLT-4 leukemia,44.5 µM
same,TGI,SK-MEL-5 melanoma,33.1 µM
same,TGI,NCI/ADR-RES ovarian,> 100 µM
same,TGI,MDA-MB-231 breast,67.6 µM
same,TGI,SN12C renal,34.3 µM
same,TGI,IGROV1 ovarian,53.6 µM
same,TGI,HCT-116 colon,28.2 µM
same,TGI,SK-MEL-2 melanoma,57.9 µM
same,TGI,SF-268 CNS,> 100 µM
same,TGI,RXF 393 renal,30 µM
same,TGI,SK-OV-3 ovarian,95.9 µM
same,TGI,MDA-MB-435,41.1 µM
same,TGI,ACHN renal,> 100 µM
NC(N)=NCc1ccc2c(c1)OCO2,TGI,KM12 colon,> 100 µM
same,TGI,NCI-H460 lung,> 100 µM
same,TGI,HOP-62 NSCLC,> 100 µM
same,TGI,U251 CNS,> 100 µM
same,TGI,SF-539 CNS,> 100 µM
same,TGI,NCI-H522 lung,> 100 µM
same,TGI,NCI-H23 lung,> 100 µM
same,TGI,UACC-62 melanoma,> 100 µM
same,TGI,786-0 renal,> 100 µM
same,TGI,OVCAR-4 ovarian,> 100 µM
same,TGI,HCC-2998 colon,> 100 µM
same,TGI,CCRF-CEM leukemia,> 100 µM
same,TGI,K-562 leukemia,> 100 µM
same,TGI,LOX IMVI melanoma,> 100 µM
same,TGI,UO-31 renal,> 100 µM
same,TGI,MALME-3M melanoma,> 100 µM
same,TGI,HT29 colon,> 100 µM
same,TGI,SNB-75 CNS,> 100 µM
same,TGI,DU-145 prostate,> 100 µM
same,TGI,CAKI-1 renal,> 100 µM
same,TGI,SW-620 colon,> 100 µM
same,TGI,OVCAR-3 ovarian,> 100 µM
same,TGI,PC-3 prostate,> 100 µM
same,TGI,HCT-15 colon,> 100 µM
same,TGI,T-47D breast,> 100 µM
same,TGI,EKVX NSCLC,> 100 µM
same,TGI,TK-10 renal,> 100 µM
same,TGI,A498 renal,> 100 µM
same,TGI,SK-MEL-28 melanoma,> 100 µM
same,TGI,OVCAR-5 ovarian,> 100 µM
same,TGI,M14 melanoma,> 100 µM
same,TGI,SR leukemia,> 100 µM
same,TGI,SF-295 CNS,> 100 µM
same,TGI,HS 578T breast,> 100 µM
same,TGI,HOP-92 NSCLC,> 100 µM
same,TGI,MDA-N,> 100 µM
same,TGI,RPMI-8226 leukemia,> 100 µM
same,TGI,SNB-19 CNS,> 100 µM
same,TGI,HL-60(TB) leukemia,> 100 µM
same,TGI,A549 NSCLC,> 100 µM
same,TGI,MOLT-4 leukemia,> 100 µM
same,TGI,SK-MEL-5 melanoma,49.7 µM
same,TGI,NCI/ADR-RES ovarian,> 100 µM
same,TGI,MDA-MB-231 breast,> 100 µM
same,TGI,IGROV1 ovarian,> 100 µM
same,TGI,HCT-116 colon,> 100 µM
same,TGI,SK-MEL-2 melanoma,> 100 µM
same,TGI,SF-268 CNS,> 100 µM
same,TGI,RXF 393 renal,> 100 µM
same,TGI,SK-OV-3 ovarian,> 100 µM
same,TGI,MDA-MB-435,> 100 µM
same,TGI,ACHN renal,> 100 µM
CCN(CC)C(=S)SC(=S)N(CC)CC,TGI,KM12 colon,64.2 µM
same,TGI,NCI-H460 lung,> 100 µM
same,TGI,HOP-62 NSCLC,> 100 µM
same,TGI,U251 CNS,> 100 µM
same,TGI,SF-539 CNS,> 100 µM
same,TGI,NCI-H522 lung,18.2 µM
same,TGI,NCI-H23 lung,> 80.6 µM
same,TGI,UACC-62 melanoma,> 93.1 µM
same,TGI,786-0 renal,56.3 µM
same,TGI,OVCAR-4 ovarian,> 100 µM
same,TGI,HCC-2998 colon,> 100 µM
same,TGI,NCI-H226 lung,> 100 µM
same,TGI,K-562 leukemia,> 100 µM
same,TGI,LOX IMVI melanoma,58.9 µM
same,TGI,UO-31 renal,> 76.3 µM
same,TGI,MALME-3M melanoma,> 58.4 µM
same,TGI,SNB-75 CNS,99.2 µM
same,TGI,DU-145 prostate,> 100 µM
same,TGI,MCF7 breast,> 100 µM
same,TGI,UACC-257 melanoma,> 100 µM
same,TGI,CAKI-1 renal,99.7 µM
same,TGI,SW-620 colon,> 100 µM
same,TGI,OVCAR-3 ovarian,> 94.4 µM
same,TGI,PC-3 prostate,> 100 µM
same,TGI,HCT-15 colon,> 100 µM
same,TGI,T-47D breast,> 100 µM
same,TGI,EKVX NSCLC,> 100 µM
same,TGI,TK-10 renal,> 100 µM
same,TGI,BT-549 breast,77.4 µM
same,TGI,A498 renal,> 100 µM
same,TGI,SK-MEL-28 melanoma,> 100 µM
same,TGI,COLO 205 colon,45 µM
same,TGI,OVCAR-5 ovarian,> 100 µM
same,TGI,M14 melanoma,> 100 µM
same,TGI,SF-295 CNS,> 100 µM
same,TGI,HS 578T breast,> 100 µM
same,TGI,HOP-92 NSCLC,> 87.3 µM
same,TGI,MDA-N,> 100 µM
same,TGI,RPMI-8226 leukemia,57.4 µM
same,TGI,SNB-19 CNS,> 100 µM
same,TGI,HL-60(TB) leukemia,> 100 µM
same,TGI,OVCAR-8 ovarian,> 100 µM
same,TGI,A549 NSCLC,> 100 µM
same,TGI,MOLT-4 leukemia,> 72.8 µM
same,TGI,SK-MEL-5 melanoma,> 46.5 µM
same,TGI,NCI/ADR-RES ovarian,> 100 µM
same,TGI,MDA-MB-231 breast,> 92.1 µM
same,TGI,SN12C renal,> 100 µM
same,TGI,IGROV1 ovarian,> 100 µM
same,TGI,HCT-116 colon,> 58.3 µM
same,TGI,SK-MEL-2 melanoma,> 100 µM
same,TGI,SF-268 CNS,> 100 µM
same,TGI,RXF 393 renal,> 100 µM
same,TGI,SK-OV-3 ovarian,> 100 µM
same,TGI,MDA-MB-435,> 100 µM
same,TGI,ACHN renal,> 100 µM
CCOC(=O)CCSS(=O)(=O)C(F)(F)F,TGI,KM12 colon,> 100 µM
same,TGI,NCI-H460 lung,> 100 µM
same,TGI,HOP-62 NSCLC,> 100 µM
same,TGI,U251 CNS,> 100 µM
same,TGI,NCI-H23 lung,> 100 µM
same,TGI,UACC-62 melanoma,> 100 µM
same,TGI,786-0 renal,> 100 µM
same,TGI,OVCAR-4 ovarian,> 100 µM
same,TGI,HCC-2998 colon,> 100 µM
same,TGI,CCRF-CEM leukemia,> 100 µM
same,TGI,NCI-H226 lung,> 100 µM
same,TGI,LOX IMVI melanoma,> 100 µM
same,TGI,UO-31 renal,> 100 µM
same,TGI,SNB-75 CNS,> 100 µM
same,TGI,DU-145 prostate,> 100 µM
same,TGI,MCF7 breast,> 100 µM
same,TGI,UACC-257 melanoma,> 100 µM
same,TGI,CAKI-1 renal,> 100 µM
same,TGI,SW-620 colon,> 100 µM
same,TGI,OVCAR-3 ovarian,> 100 µM
same,TGI,PC-3 prostate,> 100 µM
same,TGI,HCT-15 colon,> 100 µM
same,TGI,T-47D breast,> 100 µM
same,TGI,EKVX NSCLC,> 100 µM
same,TGI,TK-10 renal,> 100 µM
same,TGI,BT-549 breast,> 100 µM
same,TGI,A498 renal,> 100 µM
same,TGI,SK-MEL-28 melanoma,> 100 µM
same,TGI,COLO 205 colon,> 100 µM
same,TGI,OVCAR-5 ovarian,> 100 µM
same,TGI,M14 melanoma,> 100 µM
same,TGI,SF-295 CNS,> 100 µM
same,TGI,HOP-92 NSCLC,> 100 µM
same,TGI,MDA-N,> 100 µM
same,TGI,RPMI-8226 leukemia,> 100 µM
same,TGI,SNB-19 CNS,> 100 µM
same,TGI,HL-60(TB) leukemia,> 100 µM
same,TGI,OVCAR-8 ovarian,> 100 µM
same,TGI,A549 NSCLC,> 100 µM
same,TGI,SK-MEL-5 melanoma,> 100 µM
same,TGI,NCI/ADR-RES ovarian,> 100 µM
same,TGI,SN12C renal,> 100 µM
same,TGI,IGROV1 ovarian,> 100 µM
same,TGI,HCT-116 colon,> 100 µM
same,TGI,SK-MEL-2 melanoma,> 100 µM
same,TGI,RXF 393 renal,> 100 µM
same,TGI,SK-OV-3 ovarian,> 100 µM
same,TGI,MDA-MB-435,> 100 µM
same,TGI,ACHN renal,> 100 µM
